The values below come from patent EP4652995A1, “ANTIBACTERIAL COMPOSITION, PHARMACEUTICAL AGENT, AND ANTIBACTERIAL METHOD” (priority 2023, dated 2024).

The subject of this experiment is vancomycin resistant E.faecium (VRE). The experiment can be described thus: In vitro proliferation inhibition of E. faecium (OD600). As to conditions: pH 7.5; 10 µg/mL V-161, 1 µg/mL niclosamide, alone or in combination; NaTY medium, 37°C, 13 hours; OD600 (Fig. 2). In kind it is cell-based.

Structures are written as SMILES.

`Cc1ccc2[nH]c(-c3ccc(N(C)C)cc3)nc2c1` [Example V-161, N,N-dimethyl-4-(5-methyl-1H-benzo[d]imidazol-2-yl)aniline]: the proliferation of bacteria result is reported as “not completely inhibited”.
Next, `O=C(Nc1ccc([N+](=O)[O-])cc1Cl)c1cc(Cl)ccc1O` [niclosamide, 5-chloro-2-hydroxy-N-(2-chloro-4-nitrophenyl)benzamide]: “not completely inhibited”.
